Test results from publication PMC5908784, “Extracellular loops 2 and 3 of the calcitonin receptor selectively modify agonist binding and efficacy” (Biochemical Pharmacology, 2018).
Numbering of substitutions follows the chain as printed. Where a SMILES comes first, the peptide text is derived from it. Bridges are numbered along the chain shown (N, C = ends).

Columns and labels:
Experiment in all cases: Heterologous whole cell competition binding
Conditions in all cases: heterologous competition of 125I-sCT(8-32), whole cells, mean ± S.E.M., SEM
hCTR WT = molecular target: T1, hCTR WT (Homo sapiens, UniProt P30988)
T1 construct: expressed in transfected cells
T1 sequence (P30988 25-474): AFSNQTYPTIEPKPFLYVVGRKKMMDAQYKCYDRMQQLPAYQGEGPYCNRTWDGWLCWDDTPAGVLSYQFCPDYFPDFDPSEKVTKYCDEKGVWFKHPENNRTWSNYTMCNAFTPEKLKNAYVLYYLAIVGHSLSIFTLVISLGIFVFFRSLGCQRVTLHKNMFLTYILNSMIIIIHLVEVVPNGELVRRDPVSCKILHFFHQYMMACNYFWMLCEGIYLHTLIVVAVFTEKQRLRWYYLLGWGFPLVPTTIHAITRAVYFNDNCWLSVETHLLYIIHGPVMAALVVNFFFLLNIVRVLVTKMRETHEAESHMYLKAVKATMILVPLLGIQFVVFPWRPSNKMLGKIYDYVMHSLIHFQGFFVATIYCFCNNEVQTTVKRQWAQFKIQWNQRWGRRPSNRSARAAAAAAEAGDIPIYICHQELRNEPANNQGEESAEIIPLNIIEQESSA
Procedure: (§1) Following overnight incubation non-bound ligand was removed and radioactivity was determined using a gamma counter.
(§2) Data were corrected for radioligand occupancy using the Cheng-Prusoff equation in Prism; as such data are reported as pKi. Emax and EC50 were estimated from concentration-response curves using with a 3-parameter logistic equation in Prism (v7). These values are a composite of functional affinity, efficacy and stimulus response coupling. […] Significance was accepted at P < 0.05.

hCTR V357A = molecular target: T2, hCTR V357A (Homo sapiens, UniProt P30988, V357A)
T2 construct: c-Myc (N); expressed in transfected cells
T2 sequence (P30988 25-474 V357A): T1 sequence (P30988 25-474) with V333A
Procedure: as §1, §2

hCTR Y372A = molecular target: T3, hCTR Y372A (Homo sapiens, UniProt P30988, Y372A)
T3 construct: c-Myc (N); expressed in transfected cells
T3 sequence (P30988 25-474 Y372A): T1 sequence (P30988 25-474) with Y348A
Procedure: as §1, §2

hCTR S364A = molecular target: T4, hCTR S364A (Homo sapiens, UniProt P30988, S364A)
T4 construct: c-Myc (N); expressed in transfected cells
T4 sequence (P30988 25-474 S364A): T1 sequence (P30988 25-474) with S340A
Procedure: as §1, §2

hCTR M376A = molecular target: T5, hCTR M376A (Homo sapiens, UniProt P30988, M376A)
T5 construct: c-Myc (N); expressed in transfected cells
T5 sequence (P30988 25-474 M376A): T1 sequence (P30988 25-474) with M352A
Procedure: as §1, §2

Ki (hCTR WT): 5.37 nM
Ki (hCTR V357A): 12.9 nM
Ki (hCTR Y372A): 28.2 nM
Ki (hCTR S364A): 5.37 nM
Ki (hCTR M376A): 7.76 nM
Compound: CSCC[C@H](NC(=O)CNC(=O)[C@H](CO)NC(=O)[C@H](Cc1ccccc1)NC(=O)[C@H](CCCNC(=N)N)NC(=O)[C@H](Cc1c[nH]cn1)NC(=O)[C@H](Cc1ccccc1)NC(=O)[C@H](CC(N)=O)NC(=O)[C@H](CC(N)=O)NC(=O)[C@H](CC(C)C)NC(=O)[C@H](CC(N)=O)NC(=O)[C@H](CCCNC(=N)N)NC(=O)[C@H](Cc1c[nH]c2ccccc12)NC(=O)[C@H](Cc1ccc(O)cc1)NC(=O)[C@H](C)NC(=O)[C@H](CO)NC(=O)[C@H](CC(C)C)NC(=O)[C@@H](NC(=O)[C@@H]1CSSC[C@H](N)C(=O)N[C@@H](CO)C(=O)N[C@@H](CC(N)=O)C(=O)N[C@@H](CC(C)C)C(=O)N[C@@H](CO)C(=O)N[C@@H]([C@@H](C)O)C(=O)N1)C(C)C)C(=O)NCC(=O)N[C@@H](Cc1ccccc1)C(=O)NCC(=O)N1CCC[C@H]1C(=O)N[C@@H](CCC(=O)O)C(=O)N[C@H](C(=O)N1CCC[C@H]1C(N)=O)[C@@H](C)O [pCT] (H-CSNLSTCVLSAYWRNLNNFHRFSGMGFGPETP-NH2; disulfide 1-7)
